Test results from ChEMBL document CHEMBL4229379, “Synthesis and structure-activity relationship of novel bisindole amidines active against MDR Gram-positive and Gram-negative bacteria” (Eur J Med Chem, 2018).
Converted amounts (≈) assume the structure as drawn.

What was measured:
[1] = tested on: Enterococcus faecium; assay: Antibacterial activity against vancomycin-sensitive Enterococcus faecium 12-3 after 18 hrs by CLSI broth microdilution method; type: functional; conditions: 12-3, 18 h
[2] = tested on: Enterococcus faecalis; assay: Antibacterial activity against vancomycin-sensitive Enterococcus faecalis 12-5 after 18 hrs by CLSI broth microdilution method; type: functional; conditions: 12-5, 18 h
[3] = tested on: Enterobacter cloacae; assay: Antibacterial activity against Enterobacter cloacae ATCC 43560 after 18 hrs by CLSI broth microdilution method; type: functional; conditions: ATCC 43560, 18 h
[4] = tested on: Klebsiella aerogenes; assay: Antibacterial activity against Enterobacter aerogenes ATCC 13048 after 18 hrs by CLSI broth microdilution method; type: functional; conditions: ATCC 13048, 18 h
[5] = tested on: Klebsiella pneumoniae; assay: Antibacterial activity against extended-spectrum beta-lactamase harboring Klebsiella pneumoniae 12-8 after 18 hrs by CLSI broth microdilution method; type: functional; conditions: 12-8, 18 h
[6] = tested on: Acinetobacter calcoaceticus; assay: Antibacterial activity against Acinetobacter calcoaceticus ATCC 19606 after 18 hrs by CLSI broth microdilution method; type: functional; conditions: ATCC 19606, 18 h
[7] = tested on: Serratia marcescens; assay: Antibacterial activity against Serratia marcescens ATCC 21074 after 18 hrs by CLSI broth microdilution method; type: functional; conditions: ATCC 21074, 18 h
[8] = tested on: Pseudomonas aeruginosa; assay: Antibacterial activity against Pseudomonas aeruginosa PAO1 after 18 hrs by CLSI broth microdilution method; type: functional; conditions: PAO1, 18 h
[9] = tested on: Klebsiella pneumoniae; assay: Antibacterial activity against extended-spectrum beta-lactamase deficient Klebsiella pneumoniae 7 after 18 hrs by CLSI broth microdilution method; type: functional; conditions: Klebsiella pneumoniae, 7, 18 h
[10] = tested on: Staphylococcus aureus; assay: Antibacterial activity against methicillin-resistant Staphylococcus aureus 12-33 after 18 hrs by CLSI broth microdilution method; type: functional; conditions: 12-33, 18 h
[11] = tested on: Proteus mirabilis; assay: Antibacterial activity against Proteus mirabilis 12-6 after 18 hrs by CLSI broth microdilution method; type: functional; conditions: 12-6, 18 h
[12] = tested on: Escherichia coli; assay: Antibacterial activity against extended-spectrum beta-lactamase harboring Escherichia coli 12-15 after 18 hrs by CLSI broth microdilution method; type: functional; conditions: 12-15, 18 h
[13] = tested on: Proteus vulgaris; assay: Antibacterial activity against Proteus vulgaris ATCC 29905 after 18 hrs by CLSI broth microdilution method; type: functional; conditions: ATCC 29905, 18 h
[14] = tested on: Enterococcus faecium; assay: Antibacterial activity against vancomycin-resistant Enterococcus faecium ATCC 700221 after 18 hrs by CLSI broth microdilution method; type: functional; conditions: ATCC 700221, 18 h
[15] = tested on: Staphylococcus epidermidis; assay: Antibacterial activity against methicillin-sensitive Staphylococcus epidermidis 12-6 after 18 hrs by CLSI broth microdilution method; type: functional; conditions: 12-6, 18 h
[16] = tested on: Staphylococcus epidermidis; assay: Antibacterial activity against methicillin-resistant Staphylococcus epidermidis 12-8 after 18 hrs by CLSI broth microdilution method; type: functional; conditions: 12-8, 18 h
[17] = tested on: Escherichia coli; assay: Antibacterial activity against extended-spectrum beta-lactamase deficient Escherichia coli 12-14 after 18 hrs by CLSI broth microdilution method; type: functional; conditions: 12-14, 18 h
[18] = tested on: Klebsiella pneumoniae; assay: Antibacterial activity against new delhi metallo-beta-lactamase-1 harboring Klebsiella pneumoniae ATCC BAA-2146 after 18 hrs by CLSI broth microdilution method; type: functional; conditions: ATCC BAA-2146, 18 h
[19] = tested on: Staphylococcus aureus; assay: Antibacterial activity against methicillin-sensitive Staphylococcus aureus 15 after 18 hrs by CLSI broth microdilution method; type: functional; conditions: Staphylococcus aureus, 15, 18 h
[20] = tested on: Klebsiella pneumoniae; assay: Antibacterial activity against extended-spectrum beta-lactamase deficient Klebsiella pneumoniae 12-4 after 18 hrs by CLSI broth microdilution method; type: functional; conditions: 12-4, 18 h
[21] = tested on: Staphylococcus aureus; assay: Antibacterial activity against methicillin-resistant Staphylococcus aureus ATCC 33591 after 18 hrs by CLSI broth microdilution method; type: functional; conditions: ATCC 33591, 18 h
[22] = tested on: Enterococcus faecalis; assay: Antibacterial activity against vancomycin-resistant Enterococcus faecalis ATCC 51299 after 18 hrs by CLSI broth microdilution method; type: functional; conditions: ATCC 51299, 18 h
[23] = tested on: Escherichia coli; assay: Antibacterial activity against extended-spectrum beta-lactamase deficient Escherichia coli 1515 after 18 hrs by CLSI broth microdilution method; type: functional; conditions: Escherichia coli, 1515, 18 h
[24] = tested on: Staphylococcus epidermidis; assay: Antibacterial activity against methicillin-sensitive Staphylococcus epidermidis ATCC 12228 after 18 hrs by CLSI broth microdilution method; type: functional; conditions: ATCC 12228, 18 h
[25] = tested on: Providencia rettgeri; assay: Antibacterial activity against Providencia rettgeri ATCC 31052 after 18 hrs by CLSI broth microdilution method; type: functional; conditions: ATCC 31052, 18 h
[26] = tested on: Escherichia coli; assay: Antibacterial activity against extended-spectrum beta-lactamase deficient Escherichia coli ATCC 25922 after 18 hrs by CLSI broth microdilution method; type: functional; conditions: ATCC 25922, 18 h
[27] = tested on: Staphylococcus aureus; assay: Antibacterial activity against methicillin-sensitive Staphylococcus aureus ATCC 29213 after 18 hrs by CLSI broth microdilution method; type: functional; conditions: ATCC 29213, 18 h
[28] = tested on: Enterococcus faecalis; assay: Antibacterial activity against vancomycin-sensitive Enterococcus faecalis ATCC 29212 after 18 hrs by CLSI broth microdilution method; type: functional; conditions: ATCC 29212, 18 h
[29] = Cytotoxicity against HEK293T cells assessed as reduction in cell viability after 48 hrs by MTS assay; type: cell-based, HEK-293T; conditions: human
[30] = tested on: Pseudomonas aeruginosa; assay: Antibacterial activity against Pseudomonas aeruginosa 12-16 after 18 hrs by CLSI broth microdilution method; type: functional; conditions: 12-16, 18 h
[31] = tested on: Klebsiella pneumoniae; assay: Antibacterial activity against extended-spectrum beta-lactamase harboring Klebsiella pneumoniae ATCC 700603 after 18 hrs by CLSI broth microdilution method; type: functional; conditions: Klebsiella pneumoniae, 700603, 18 h
[32] = tested on: Enterococcus faecium; assay: Antibacterial activity against vancomycin-resistant Enterococcus faecium 12-1 after 18 hrs by CLSI broth microdilution method; type: functional; conditions: 12-1, 18 h
[33] = tested on: Enterococcus faecalis; assay: Antibacterial activity against vancomycin-resistant Enterococcus faecalis 09-9 after 18 hrs by CLSI broth microdilution method; type: functional; conditions: 09-9, 18 h
[34] = tested on: Staphylococcus aureus; assay: Antibacterial activity against methicillin-sensitive Staphylococcus aureus 12-28 after 18 hrs by CLSI broth microdilution method; type: functional; conditions: 12-28, 18 h
[35] = tested on: Stenotrophomonas maltophilia; assay: Antibacterial activity against Stenotrophomonas maltophilia ATCC 13636 after 18 hrs by CLSI broth microdilution method; type: functional; conditions: ATCC 13636, 18 h
[36] = tested on: Citrobacter freundii; assay: Antibacterial activity against Citrobacter freundii ATCC 43864 after 18 hrs by CLSI broth microdilution method; type: functional; conditions: ATCC 43864, 18 h
[37] = tested on: Pseudomonas aeruginosa; assay: Antibacterial activity against Pseudomonas aeruginosa ATCC 27853 after 18 hrs by CLSI broth microdilution method; type: functional; conditions: ATCC 27853, 18 h

| SMILES | MIC [1] [µg/mL] | MIC [2] [µg/mL] | MIC [3] [µg/mL] | MIC [4] [µg/mL] | MIC [5] [µg/mL] | MIC [6] [µg/mL] | MIC [7] [µg/mL] | MIC [8] [µg/mL] | MIC [9] [µg/mL] | MIC [10] [µg/mL] | MIC [11] [µg/mL] | MIC [12] [µg/mL] | MIC [13] [µg/mL] | MIC [14] [µg/mL] | MIC [15] [µg/mL] | MIC [16] [µg/mL] | MIC [17] [µg/mL] | MIC [18] [µg/mL] | MIC [19] [µg/mL] | MIC [20] [µg/mL] | further results |
| --- | --- | --- | --- | --- | --- | --- | --- | --- | --- | --- | --- | --- | --- | --- | --- | --- | --- | --- | --- | --- | --- |
| CN(C)CCCNC(=N)c1ccc2cc(-c3ccc(-c4cc5ccc(C(=N)NCCCN(C)C)cc5[nH]4)cc3)[nH]c2c1 | 8 (≈ 14.2 µM) | 8 (≈ 14.2 µM) | 8 (≈ 14.2 µM) | 8 (≈ 14.2 µM) | 8 (≈ 14.2 µM) | 128 (≈ 227 µM) | 8 (≈ 14.2 µM) | 8 (≈ 14.2 µM) | 8 (≈ 14.2 µM) | 4 (≈ 7.11 µM) | 128 (≈ 227 µM) | 8 (≈ 14.2 µM) | 16 (≈ 28.4 µM) | 4 (≈ 7.11 µM) | 4 (≈ 7.11 µM) | 2 (≈ 3.55 µM) | 8 (≈ 14.2 µM) | 8 (≈ 14.2 µM) | 4 (≈ 7.11 µM) | 8 (≈ 14.2 µM) | MIC [21]: 4 µg/mL (≈ 7.11 µM); MIC [22]: 4 µg/mL (≈ 7.11 µM); MIC [23]: 8 µg/mL (≈ 14.2 µM); MIC [24]: 2 µg/mL (≈ 3.55 µM); MIC [25]: 8 µg/mL (≈ 14.2 µM); MIC [26]: 4 µg/mL (≈ 7.11 µM); MIC [27]: 4 µg/mL (≈ 7.11 µM); MIC [28]: 4 µg/mL (≈ 7.11 µM); CC50 at 48 h [29]: 27.7 µg/mL (≈ 49.2 µM); MIC [30]: 32 µg/mL (≈ 56.9 µM); MIC [31]: 8 µg/mL (≈ 14.2 µM); MIC [32]: 4 µg/mL (≈ 7.11 µM); MIC [33]: 4 µg/mL (≈ 7.11 µM); MIC [34]: 4 µg/mL (≈ 7.11 µM); MIC [35]: 8 µg/mL (≈ 14.2 µM); MIC [36]: 8 µg/mL (≈ 14.2 µM); MIC [37]: 8 µg/mL (≈ 14.2 µM) |
| CN(C)CCNC(=N)c1ccc2cc(-c3ccc(-c4cc5ccc(C(=N)NCCN(C)C)cc5[nH]4)cc3)[nH]c2c1 | 8 (≈ 15 µM) | 4 (≈ 7.48 µM) | 8 (≈ 15 µM) | 8 (≈ 15 µM) | 8 (≈ 15 µM) | > 128 | 16 (≈ 29.9 µM) | 64 (≈ 120 µM) | 8 (≈ 15 µM) | 2 (≈ 3.74 µM) | 128 (≈ 239 µM) | 16 (≈ 29.9 µM) | 16 (≈ 29.9 µM) | 4 (≈ 7.48 µM) | 0.5 (≈ 0.935 µM) | 1 (≈ 1.87 µM) | 8 (≈ 15 µM) | 8 (≈ 15 µM) | 2 (≈ 3.74 µM) | 8 (≈ 15 µM) | MIC [21]: 2 µg/mL (≈ 3.74 µM); MIC [22]: 4 µg/mL (≈ 7.48 µM); MIC [23]: 8 µg/mL (≈ 15 µM); MIC [24]: 0.5 µg/mL (≈ 0.935 µM); MIC [25]: 16 µg/mL (≈ 29.9 µM); MIC [26]: 8 µg/mL (≈ 15 µM); MIC [27]: 2 µg/mL (≈ 3.74 µM); MIC [28]: 4 µg/mL (≈ 7.48 µM); CC50 at 48 h [29]: 31.2 µg/mL (≈ 58.4 µM); MIC [30]: 64 µg/mL (≈ 120 µM); MIC [31]: 16 µg/mL (≈ 29.9 µM); MIC [32]: 4 µg/mL (≈ 7.48 µM); MIC [33]: 4 µg/mL (≈ 7.48 µM); MIC [34]: 2 µg/mL (≈ 3.74 µM); MIC [35]: 16 µg/mL (≈ 29.9 µM); MIC [36]: 8 µg/mL (≈ 15 µM); MIC [37]: 16 µg/mL (≈ 29.9 µM) |
| CN(C)C(=N)c1ccc2cc(-c3cccc(-c4cc5ccc(C(=N)N(C)C)cc5[nH]4)c3)[nH]c2c1 | > 128 | > 128 | > 128 | > 128 | > 128 | > 128 | > 128 | > 128 | > 128 | 8 (≈ 17.8 µM) | > 128 | 64 (≈ 143 µM) | > 128 | 16 (≈ 35.7 µM) | 32 (≈ 71.3 µM) | 16 (≈ 35.7 µM) | 64 (≈ 143 µM) | > 128 | 4 (≈ 8.92 µM) | > 128 | MIC [21]: 4 µg/mL (≈ 8.92 µM); MIC [22]: 128 µg/mL (≈ 285 µM); MIC [23]: 64 µg/mL (≈ 143 µM); MIC [24]: 8 µg/mL (≈ 17.8 µM); MIC [25]: 128 µg/mL (≈ 285 µM); MIC [26]: 64 µg/mL (≈ 143 µM); MIC [27]: 8 µg/mL (≈ 17.8 µM); MIC [28]: 64 µg/mL (≈ 143 µM); CC50 at 48 h [29]: 52.2 µg/mL (≈ 116 µM); MIC [30]: > 128 µg/mL; MIC [31]: > 128 µg/mL; MIC [32]: 8 µg/mL (≈ 17.8 µM); MIC [33]: 64 µg/mL (≈ 143 µM); MIC [34]: 4 µg/mL (≈ 8.92 µM); MIC [35]: > 128 µg/mL; MIC [36]: > 128 µg/mL; MIC [37]: > 128 µg/mL |
